“And” between values parts separate entries of the source, which are not always exact repeats. Equal entries are not always repeated.
Each compound was assayed against PIK3CD (Human) (UniProt O00329) (assay: Assessment of PIK3CD Kinase Activity).
Sequence of PIK3CD (Human) (O00329 whole entry, looked up): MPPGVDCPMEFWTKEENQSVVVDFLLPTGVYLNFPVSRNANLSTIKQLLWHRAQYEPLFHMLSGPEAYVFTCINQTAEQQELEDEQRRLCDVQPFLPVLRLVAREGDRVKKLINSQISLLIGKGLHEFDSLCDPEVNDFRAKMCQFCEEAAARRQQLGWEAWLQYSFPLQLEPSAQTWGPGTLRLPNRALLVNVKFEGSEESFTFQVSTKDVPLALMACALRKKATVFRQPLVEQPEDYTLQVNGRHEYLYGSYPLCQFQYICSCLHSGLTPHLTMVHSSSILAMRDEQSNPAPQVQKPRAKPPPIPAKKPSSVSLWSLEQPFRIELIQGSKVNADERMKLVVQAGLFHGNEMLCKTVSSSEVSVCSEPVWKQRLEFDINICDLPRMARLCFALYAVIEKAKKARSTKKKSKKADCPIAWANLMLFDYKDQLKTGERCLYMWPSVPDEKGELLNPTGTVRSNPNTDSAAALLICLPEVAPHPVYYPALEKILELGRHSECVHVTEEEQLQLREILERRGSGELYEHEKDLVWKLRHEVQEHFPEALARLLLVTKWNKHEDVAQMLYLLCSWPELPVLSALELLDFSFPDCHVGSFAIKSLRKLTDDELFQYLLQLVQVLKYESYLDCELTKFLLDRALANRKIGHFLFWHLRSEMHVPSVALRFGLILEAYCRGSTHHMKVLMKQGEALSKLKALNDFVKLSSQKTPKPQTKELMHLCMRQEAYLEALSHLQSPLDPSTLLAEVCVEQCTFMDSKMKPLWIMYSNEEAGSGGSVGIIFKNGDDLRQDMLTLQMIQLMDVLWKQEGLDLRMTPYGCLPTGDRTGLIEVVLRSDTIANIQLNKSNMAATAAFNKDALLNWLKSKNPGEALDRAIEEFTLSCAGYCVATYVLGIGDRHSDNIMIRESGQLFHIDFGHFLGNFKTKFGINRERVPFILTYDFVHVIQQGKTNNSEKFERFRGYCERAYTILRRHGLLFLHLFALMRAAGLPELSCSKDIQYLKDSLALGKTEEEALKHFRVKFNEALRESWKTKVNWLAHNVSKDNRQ
In the case of CC(Nc1ncnc2[nH]cnc12)c1nc(C#N)c2ccccc2c1-c1cccc(F)c1 (centres undefined), the IC50 is reported as 50 to 100 nM.
Work on CC(Nc1ncnc2[nH]cnc12)c1cc(Cl)c2cccnc2c1N1CCC(CO)CC1 (centres undefined) yielded an IC50 of 100 to 250 nM.
In the case of CC(Nc1ncnc2[nH]cnc12)c1cc(Cl)c2cccnc2c1N1CCN(C(=O)c2cccnc2)CC1 (centres undefined), the IC50 is reported as under 50 nM.
C[C@@H](Nc1ncnc2[nH]cnc12)c1cc(F)c2cccnc2c1-c1cccc(F)c1 showed an IC50 of under 50 nM.
In the case of C[C@H](Nc1ncnc2[nH]cnc12)c1cc(F)c2cccnc2c1-c1cccc(F)c1, the IC50 is reported as under 50 nM.
Work on CC(Nc1ncnc2[nH]cnc12)c1cc(Cl)c2cn[nH]c2c1-c1cccc(F)c1 (centres undefined) yielded an IC50 of under 50 nM.
Compound CC(Nc1ncnc2[nH]cnc12)c1cc(Cl)c2cccnc2c1N1CCC(F)(F)CC1 (centres undefined) has an IC50 of 500 to 1000 nM.
COCC(=O)N1CCN(c2c(C(C)Nc3ncnc4[nH]cnc34)cc(Cl)c3cccnc23)CC1 (centres undefined) gave an IC50 of under 50 nM.
Work on CC(Nc1ncnc2[nH]cnc12)c1cc(Cl)c2ccncc2c1N1CC[C@H](F)C1 (some centres undefined) yielded an IC50 of 250 to 500 nM.
Compound CC(Nc1ncnc2[nH]cnc12)c1cc(F)c2cccnc2c1N1CC[C@@H](O)C1 (some centres undefined) has an IC50 of 100 to 250 nM.
Work on COC(=O)N1CCN(c2c(C(C)Nc3ncnc4[nH]cnc34)cc(Cl)c3cccnc23)CC1 (centres undefined) yielded an IC50 of under 50 nM.
With CC(Nc1ncnc2[nH]cnc12)c1cc(Cl)c2cccnc2c1N1CCC[C@H](O)C1 (some centres undefined) the IC50 was under 50 nM.
CCC(Nc1ncnc2[nH]cnc12)c1cc(Cl)c2ccnnc2c1-c1cccc(F)c1 (centres undefined) gave an IC50 of under 50 nM.
Compound CC(Nc1ncnc2[nH]cnc12)c1cc(Cl)c2cccnc2c1N1CCN(C(=O)c2ccccc2F)CC1 (centres undefined) has an IC50 of 250 to 500 nM.
Compound CC(Nc1ncnc2[nH]cnc12)c1cc(Cl)c2cccnc2c1N1CCN(C(=O)c2cnccn2)CC1 (centres undefined) has an IC50 of under 50 nM.
For CC(Nc1ncnc2[nH]cnc12)c1cc(Cl)c2cccnc2c1N1CCCC(CO)C1 (centres undefined), the IC50 was 100 to 250 nM.
CC(Nc1ncnc2[nH]cnc12)c1cc(F)c2cccnc2c1N1CCN(C(=O)c2cnn(C)c2)CC1 (centres undefined) was tested, and the IC50 was under 50 nM.
In the case of Cc1cc(C(C)Nc2ncnc3[nH]cnc23)c(-c2cc(F)cc(F)c2)c2nnccc12 (centres undefined), the IC50 is reported as under 50 nM.
With CC(Nc1ncnc2[nH]cnc12)c1cc(Cl)c2cccnc2c1N1CC[C@@H](O)C1 (some centres undefined) the IC50 was under 50 nM.
For CC(Nc1ncnc2[nH]cnc12)c1cc(Cl)c2cccnc2c1N1CCN(C2CC2)CC1 (centres undefined), the IC50 was under 50 nM.
CC(Nc1ncnc2[nH]cnc12)c1cc(Cl)c2cccnc2c1N1CCN(C(=O)c2cccc(F)c2)CC1 (centres undefined) gave an IC50 of 100 to 250 nM.
For COc1ccc(-c2c(C(C)Nc3ncnc4[nH]cnc34)cc(Cl)c3ccnnc23)cc1F (centres undefined), the IC50 was 500 to 1000 nM.
Work on COC[C@H]1CCCN1c1c(C(C)Nc2ncnc3[nH]cnc23)cc(Cl)c2cccnc12 (some centres undefined) yielded an IC50 of 100 to 250 nM.
For CC(Nc1ncnc2[nH]cnc12)c1cc(Cl)c2cccnc2c1N1CCC(O)CC1 (centres undefined), the IC50 was under 50 nM.
In the case of CC(Nc1ncnc2[nH]cnc12)c1ccc2ccccc2c1-c1cccc(F)c1 (centres undefined), the IC50 is reported as 100 to 250 nM.
With CC(Nc1ncnc2[nH]cnc12)c1cc(Cl)c2cccnc2c1-c1ccccc1F (centres undefined) the IC50 was 100 to 250 nM and < 50 nM.
Compound Cc1nc(C(C)Nc2ncnc3[nH]cnc23)c(-c2cccc(F)c2)c2ccccc12 (centres undefined) has an IC50 of 100 to 250 nM.
With Cc1cc(C(C)Nc2ncnc3[nH]cnc23)c(-c2cccc(F)c2)c2nnccc12 (centres undefined) the IC50 was < 50 nM and 500 to 1000 nM.
CC(=O)NC1CCN(c2c(C(C)Nc3ncnc4[nH]cnc34)cc(Cl)c3cccnc23)CC1 (centres undefined) was tested, and the IC50 was under 50 nM.
For CC(Nc1ncnc2[nH]cnc12)c1cc(Cl)c2ccncc2c1-c1cccc(F)c1 (centres undefined), the IC50 was under 50 nM.
CC(Nc1ncnc2[nH]cnc12)c1cc(Cl)c2cccnc2c1N1CCC(C#N)C1 (centres undefined) gave an IC50 of 100 to 250 nM.
CC(Nc1ncnc2[nH]cnc12)c1cc(Cl)c2cccnc2c1N1CCN(C(=O)c2ccc(F)cc2)CC1 (centres undefined) gave an IC50 of 100 to 250 nM.
Work on CC(Nc1ncnc2[nH]cnc12)c1cc(Cl)c2cccnc2c1N1CCN(C(=O)C2CCC2)CC1 (centres undefined) yielded an IC50 of under 50 nM.
For CC(Nc1ncnc2[nH]cnc12)c1cc(Cl)c2cccnc2c1N1CCC(NS(C)(=O)=O)CC1 (centres undefined), the IC50 was 100 to 250 nM.
Work on CC(Nc1ncnc2[nH]cnc12)c1ccc2cccnc2c1-c1cccc(F)c1 (centres undefined) yielded an IC50 of 250 to 500 nM.
CC(C)C(=O)N[C@H]1CCN(c2c(C(C)Nc3ncnc4[nH]cnc34)cc(Cl)c3cccnc23)C1 (some centres undefined) showed an IC50 of under 50 nM.
CC(Nc1nc(N)nc2[nH]cnc12)c1ccc2ccccc2c1-c1cccc(F)c1 (centres undefined) was tested, and the IC50 was 500 to 1000 nM.
With CC(Nc1ncnc2[nH]cnc12)c1cc(Cl)c2cccnc2c1N1CCC(c2ccccc2)C1 (centres undefined) the IC50 was 250 to 500 nM.
Compound CC(Nc1ncnc2[nH]cnc12)c1cc(Cl)c2ccccc2c1N1CCC(O)CC1 (centres undefined) has an IC50 of under 50 nM.
With CC(Nc1ncnc2[nH]cnc12)c1cc(Cl)c2cnn(C)c2c1-c1cc(F)cc(F)c1 (centres undefined) the IC50 was under 50 nM.
CC(Nc1ncnc2[nH]cnc12)c1cc(Cl)c2cccnc2c1N1CCC(F)CC1 (centres undefined) was tested, and the IC50 was 100 to 250 nM.
CC(Nc1ncnc2[nH]cnc12)c1cc(Cl)c2cccnc2c1N1CCN(C2CCC2)CC1 (centres undefined) gave an IC50 of under 50 nM.
CC(Nc1ncnc2[nH]cnc12)c1cc(Cl)c2ccnnc2c1-c1ccnc(F)c1 (centres undefined) was tested, and the IC50 was 500 to 1000 nM.
In the case of COC(=O)N[C@H]1CCN(c2c(C(C)Nc3ncnc4[nH]cnc34)cc(Cl)c3cccnc23)C1 (some centres undefined), the IC50 is reported as 50 to 100 nM and < 50 nM.
For CC(=O)N1CCC(C(=O)N2CCN(c3c(C(C)Nc4ncnc5[nH]cnc45)cc(Cl)c4cccnc34)CC2)CC1 (centres undefined), the IC50 was under 50 nM.
CC(Nc1ncnc2[nH]cnc12)c1cc(Cl)c2cccnc2c1N1CCCC(F)C1 (centres undefined) showed an IC50 of 250 to 500 nM.
Compound CC(Nc1ncnc2[nH]cnc12)c1cc(Cl)c2cccnc2c1N1CCN(C(=O)N(C)C)CC1 (centres undefined) has an IC50 of under 50 nM.
In the case of CC(Nc1ncnc2[nH]cnc12)c1cc(Cl)c2cccnc2c1N1CCC(N2CCCCC2)CC1 (centres undefined), the IC50 is reported as 50 to 100 nM.
Compound Cc1noc(C)c1C(=O)N1CCN(c2c(C(C)Nc3ncnc4[nH]cnc34)cc(Cl)c3cccnc23)CC1 (centres undefined) has an IC50 of under 50 nM.
For CC(Nc1ncnc2[nH]cnc12)c1cc(Cl)c2cccnc2c1N1CC[C@H](NS(C)(=O)=O)C1 (some centres undefined), the IC50 was 250 to 500 nM and < 50 nM.
CC(Nc1ncnc2[nH]cnc12)c1cc(Cl)c2cn[nH]c2c1-c1cc(F)cc(F)c1 (centres undefined) showed an IC50 of under 50 nM.
CC(Nc1ncnc2[nH]cnc12)c1cc(Cl)c2cccnc2c1N1CCN(C(=O)c2ccncc2)CC1 (centres undefined) gave an IC50 of under 50 nM.
CC(Nc1ncnc2[nH]cnc12)c1cc(Cl)c2ccnnc2c1-c1cc(F)cc(F)c1 (centres undefined) showed an IC50 of under 50 nM.
CC(Nc1ncnc2[nH]cnc12)c1cc(C#N)c2cccnc2c1-c1cccc(F)c1 (centres undefined) gave an IC50 of 50 to 100 nM.
In the case of CC(Nc1ncnc2[nH]cnc12)c1cc(Cl)c2cccnc2c1N1CCN(C(=O)C2CC2)CC1 (centres undefined), the IC50 is reported as under 50 nM.
With CC(Nc1ncnc2[nH]cnc12)c1cc(Cl)c2ccnnc2c1-c1cncc(F)c1 (centres undefined) the IC50 was 50 to 100 nM.
For CC(Nc1ncnc2[nH]cnc12)c1cc(F)c2ccnnc2c1-c1cccc(F)c1 (centres undefined), the IC50 was 100 to 250 nM and < 50 nM.
With COC1CCN(c2c(C(C)Nc3ncnc4[nH]cnc34)cc(Cl)c3cccnc23)C1 (centres undefined) the IC50 was < 50 nM and 50 to 100 nM.
In the case of CC(Nc1ncnc2[nH]cnc12)c1cc(Cl)c2ccccc2c1-c1cccc(F)c1 (centres undefined), the IC50 is reported as 100 to 250 nM.
CC(Nc1ncnc2[nH]cnc12)c1cc(Cl)c2cccnc2c1N1CCN(Cc2ccncc2)CC1 (centres undefined) gave an IC50 of under 50 nM.
With CC(Nc1ncnc2[nH]cnc12)c1ccc2cccnc2c1-c1cc(F)cc(F)c1 (centres undefined) the IC50 was 500 to 1000 nM.
CC(Nc1ncnc2[nH]cnc12)c1cc(Cl)c2cccnc2c1N1CCN(CCO)CC1 (centres undefined) was tested, and the IC50 was under 50 nM.
With Cc1cc(C(C)Nc2ncnc3[nH]cnc23)c(-c2cccc(F)c2)c2ncccc12 (centres undefined) the IC50 was 100 to 250 nM.
Compound CCC(=O)N[C@H]1CCN(c2c(C(C)Nc3ncnc4[nH]cnc34)cc(Cl)c3cccnc23)C1 (some centres undefined) has an IC50 of under 50 nM.
CC(Nc1ncnc2[nH]cnc12)c1ccc2ccccc2c1-c1cncc(F)c1 (centres undefined) showed an IC50 of under 50 nM.
In the case of CC(Nc1ncnc2[nH]cnc12)c1cc(Cl)c2cccnc2c1N1CCN(C2CCCCC2)CC1 (centres undefined), the IC50 is reported as 50 to 100 nM.
Work on CC(Nc1nc(N)nc2[nH]cnc12)c1cc(F)c2ccnnc2c1-c1cccc(F)c1 (centres undefined) yielded an IC50 of under 50 nM.
CC(Nc1ncnc2[nH]cnc12)c1cc(Cl)c2cccnc2c1N1CCN(C(=O)c2ccccc2)CC1 (centres undefined) showed an IC50 of 50 to 100 nM.
CC(Nc1ncnc2[nH]cnc12)c1cc(Cl)c2cccnc2c1N1CCN(C(=O)c2ccn(C)n2)CC1 (centres undefined) showed an IC50 of under 50 nM.
Compound COC1CCN(c2c(C(C)Nc3ncnc4[nH]cnc34)cc(Cl)c3cccnc23)CC1 (centres undefined) has an IC50 of 50 to 100 nM.
CC(Nc1ncnc2[nH]cnc12)c1cc(Cl)c2cccnc2c1N1CCC(C#N)CC1 (centres undefined) gave an IC50 of 100 to 250 nM.
COC(=O)NC1CCN(c2c(C(C)Nc3ncnc4[nH]cnc34)cc(Cl)c3cccnc23)CC1 (centres undefined) gave an IC50 of under 50 nM.
With CC(Nc1ncnc2[nH]cnc12)c1cc(Cl)c2cccnc2c1N1CCC(CCO)CC1 (centres undefined) the IC50 was 100 to 250 nM.
With COC1CCCN(c2c(C(C)Nc3ncnc4[nH]cnc34)cc(Cl)c3cccnc23)C1 (centres undefined) the IC50 was 250 to 500 nM and 100 to 250 nM.
For CC(Nc1ncnc2[nH]cnc12)c1cc(Cl)c2ccnnc2c1-c1ccccc1F (centres undefined), the IC50 was < 50 nM and 50 to 100 nM and 250 to 500 nM.
With CC(Nc1ncnc2[nH]cnc12)c1cc(F)c2cccnc2c1N1CCN(C2CCC2)CC1 (centres undefined) the IC50 was under 50 nM.
With Cc1cc(C(=O)N2CCN(c3c(C(C)Nc4ncnc5[nH]cnc45)cc(Cl)c4cccnc34)CC2)no1 (centres undefined) the IC50 was under 50 nM.
CC(=O)N[C@H]1CCN(c2c(C(C)Nc3ncnc4[nH]cnc34)cc(Cl)c3cccnc23)C1 (some centres undefined) showed an IC50 of under 50 nM.
Compound CC(Nc1ncnc2[nH]cnc12)c1cc(Cl)c2cccnc2c1N1CCN(C(=O)c2ccccn2)CC1 (centres undefined) has an IC50 of under 50 nM.
Compound CC(Nc1ncnc2[nH]cnc12)c1cc(Cl)c2cccnc2c1N1CCN(CC(=O)N(C)C)CC1 (centres undefined) has an IC50 of under 50 nM.
Compound CC(Nc1ncnc2[nH]cnc12)c1ccc2cccnc2c1-c1ccccc1F (centres undefined) has an IC50 of 500 to 1000 nM.
Work on CCc1cc(C(C)Nc2ncnc3[nH]cnc23)c(-c2cccc(F)c2)c2ncccc12 (centres undefined) yielded an IC50 of 50 to 100 nM.
Work on CC(Nc1nc(N)nc2[nH]cnc12)c1ccc2ccccc2c1-c1cncc(F)c1 (centres undefined) yielded an IC50 of under 50 nM.
CC(Nc1ncnc2[nH]cnc12)c1cc(F)c2ccnnc2c1-c1cc(F)cc(F)c1 (centres undefined) showed an IC50 of 100 to 250 nM.
For CC(Nc1ncnc2[nH]cnc12)c1cc(Cl)c2cccnc2c1-c1cccc(F)c1 (centres undefined), the IC50 was under 50 nM.
With CC(Nc1ncnc2[nH]cnc12)c1ccc2cccnc2c1-c1cncc(F)c1 (centres undefined) the IC50 was 500 to 1000 nM.
Compound CC(Nc1ncnc2[nH]cnc12)c1cc(Cl)c2conc2c1-c1cccc(F)c1 (centres undefined) has an IC50 of under 50 nM.
COCCN1CCN(c2c(C(C)Nc3ncnc4[nH]cnc34)cc(Cl)c3cccnc23)CC1 (centres undefined) was tested, and the IC50 was under 50 nM.
Work on Fc1cccc(-c2c(CNc3ncnc4[nH]cnc34)cc(Cl)c3ccnnc23)c1 yielded an IC50 of 500 to 1000 nM.
